Legend:
[1] = tested on: convulsive seizures; assay: Acute intranasal treatment of convulsive seizures in pediatric human subjects; type: in vivo; settings: human subjects weighing over 60 lbs
Experimental: Three male human pediatric subjects, each under the age of 16, undergoing convulsive seizures, were administered from two to four 0.1 ml doses (each dose 5 mg delta-9-tetrahydrocannabinol with 8% by volume linalool) of the product disclosed herein. Administration was achieved via a nasal spray administered within one or more of the subject's nostrils using the delivery device disclosed herein by a caregiver during the occurrence of the convulsive seizure. In subject one, administered 3 doses, a visible state of cessation of the convulsions of the seizure was achieved by 21 seconds from first dose administration. In subject two, administered 4 doses, a visible state of cessation of the convulsions of the seizure was achieved by 36 seconds from first dose administration. In subject three, administered 2 doses, a visible state of cessation of the convulsions of the seizure was achieved by 27 seconds from first dose administration.
Thus, acute treatment of the convulsive seizure using an average dose of 3×0.1 ml of the 5 mg delta-9-tetrahydrocannabinol with 8% by volume linalool achieved cessation of the convulsion symptom of the convulsive seizure within a mean time of 28 seconds from first dose administration.

[2] = tested on: rat model of epilepsy; settings: intraperitoneal injection, cited from earlier work

SMILES: CCCCCc1cc(O)c2c(c1)OC(C)(C)[C@@H]1CCC(C)=C[C@@H]21 [THC, delta-9-tetrahydrocannabinol]
- lowest administered THC dose per body weight at which seizures in progress were stopped [1]: around 0.37 mg/kg
- lowest total administered THC dose at which seizures in progress were treated and stopped [1]: 10.0 mg
- seizure prevention ([2]; 30.0 mg/kg): can prevent seizures from occurring
- ED50 anticonvulsant effect (seizure prevention) [2]: 15.0 mg/kg
- dose at which anticonvulsant effect starts [2]: 5.0 mg/kg
